Active and inactive are the calls of the source. The rule behind the calls is not given here. Where a SMILES comes first, the peptide text is derived from it. [ ]: non-standard residue; d: D form. The star is where a group is joined. X1 = CN(C)c1ccc(/N=N/c2nc3ccc(OCCOCCOCCN*)cc3s2)cc1; Dip = N[C@H](C(=O)O)C(c1ccccc1)c1ccccc1; Chg = N[C@H](C(=O)O)C1CCCCC1; NMeA = CN[C@@H](C)C(=O)O
What was measured:
Format in all cases: protein assay
[1] = molecular target: T1, Baculoviral IAP repeat-containing protein 3/Huntingtin (Homo sapiens) (UniProt Q13489+P42858); test: Induction of IAP-huntingtin interaction-mediated huntingtin protein degradation in fibroblasts derived from normal human subjects assessed as huntingtin protein level at 10 uM incubated for 24 hrs by Western blot method (reference value: 100%)
[2] = molecular target: T1, Baculoviral IAP repeat-containing protein 3/Huntingtin (Homo sapiens); test: Induction of IAP-huntingtin interaction-mediated huntingtin protein degradation in fibroblasts derived from normal human subjects assessed as huntingtin protein level at 10 uM incubated for 48 hrs by Western blot method (reference value: 100%)
[3] = molecular target: T1, Baculoviral IAP repeat-containing protein 3/Huntingtin (Homo sapiens); test: Induction of IAP-huntingtin interaction-mediated huntingtin protein degradation in fibroblasts derived from normal human subjects assessed as huntingtin protein level at 10 uM incubated for 96 hrs by Western blot method (reference value: 100%)
[4] = molecular target: T1, Baculoviral IAP repeat-containing protein 3/Huntingtin (Homo sapiens); test: Induction of IAP-huntingtin interaction-mediated huntingtin protein degradation in fibroblasts derived from normal human subjects at 10 uM incubated for 24 to 72 hrs by Western blot method
[5] = molecular target: T1, Baculoviral IAP repeat-containing protein 3/Huntingtin (Homo sapiens); test: Induction of IAP-huntingtin interaction-mediated huntingtin protein degradation in fibroblasts derived from Huntington's disease patient at 10 uM incubated for 24 to 72 hrs by Western blot method
[6] = molecular target: T1, Baculoviral IAP repeat-containing protein 3/Huntingtin (Homo sapiens); test: Induction of IAP-huntingtin interaction-mediated huntingtin protein degradation in fibroblasts derived from normal human subjects assessed as huntingtin protein level at 10 uM incubated for 72 hrs by Western blot method (reference value: 100%)
[7] = molecular target: T1, Baculoviral IAP repeat-containing protein 3/Huntingtin (Homo sapiens); test: Induction of immobilized GST tagged BIR3 (unknown origin)/soluble GST-tagged huntingtin 62Q mutant (unknown origin) interaction at 10 uM in presence of 3 and 10 uM MV1 incubated for 1.5 hrs at 37 degC by ELISA
[8] = molecular target: T1, Baculoviral IAP repeat-containing protein 3/Huntingtin (Homo sapiens); test: Induction of IAP-huntingtin interaction-mediated huntingtin protein degradation in fibroblasts derived from Huntington's disease patient incubated for 24 hrs by Western blot method
[9] = molecular target: T1, Baculoviral IAP repeat-containing protein 3/Huntingtin (Homo sapiens); test: Induction of immobilized GST tagged BIR3 (unknown origin)/soluble GST-tagged huntingtin 62Q mutant (unknown origin) interaction at 3 to 30 uM incubated for 1.5 hrs at 37 degC by ELISA
[10] = molecular target: T1, Baculoviral IAP repeat-containing protein 3/Huntingtin (Homo sapiens); test: Induction of immobilized GST tagged BIR3 (unknown origin)/insoluble GST-tagged huntingtin 62Q mutant (unknown origin) interaction at 3 to 30 uM incubated for 1.5 hrs at 37 degC by ELISA
[11] = molecular target: T1, Baculoviral IAP repeat-containing protein 3/Huntingtin (Homo sapiens); test: Induction of IAP-huntingtin interaction-mediated huntingtin protein degradation in fibroblasts derived from Huntington's disease patient incubated for 48 to 72 hrs by Western blot method
[12] = molecular target: T1, Baculoviral IAP repeat-containing protein 3/Huntingtin (Homo sapiens); test: Induction of immobilized GST tagged BIR3 (unknown origin)/soluble GST-tagged huntingtin 62Q mutant (unknown origin) interaction at 10 uM in presence of 10 and 100 uM thioflavin T incubated for 1.5 hrs at 37 degC by ELISA

T1 sequence (P42858 whole entry, looked up): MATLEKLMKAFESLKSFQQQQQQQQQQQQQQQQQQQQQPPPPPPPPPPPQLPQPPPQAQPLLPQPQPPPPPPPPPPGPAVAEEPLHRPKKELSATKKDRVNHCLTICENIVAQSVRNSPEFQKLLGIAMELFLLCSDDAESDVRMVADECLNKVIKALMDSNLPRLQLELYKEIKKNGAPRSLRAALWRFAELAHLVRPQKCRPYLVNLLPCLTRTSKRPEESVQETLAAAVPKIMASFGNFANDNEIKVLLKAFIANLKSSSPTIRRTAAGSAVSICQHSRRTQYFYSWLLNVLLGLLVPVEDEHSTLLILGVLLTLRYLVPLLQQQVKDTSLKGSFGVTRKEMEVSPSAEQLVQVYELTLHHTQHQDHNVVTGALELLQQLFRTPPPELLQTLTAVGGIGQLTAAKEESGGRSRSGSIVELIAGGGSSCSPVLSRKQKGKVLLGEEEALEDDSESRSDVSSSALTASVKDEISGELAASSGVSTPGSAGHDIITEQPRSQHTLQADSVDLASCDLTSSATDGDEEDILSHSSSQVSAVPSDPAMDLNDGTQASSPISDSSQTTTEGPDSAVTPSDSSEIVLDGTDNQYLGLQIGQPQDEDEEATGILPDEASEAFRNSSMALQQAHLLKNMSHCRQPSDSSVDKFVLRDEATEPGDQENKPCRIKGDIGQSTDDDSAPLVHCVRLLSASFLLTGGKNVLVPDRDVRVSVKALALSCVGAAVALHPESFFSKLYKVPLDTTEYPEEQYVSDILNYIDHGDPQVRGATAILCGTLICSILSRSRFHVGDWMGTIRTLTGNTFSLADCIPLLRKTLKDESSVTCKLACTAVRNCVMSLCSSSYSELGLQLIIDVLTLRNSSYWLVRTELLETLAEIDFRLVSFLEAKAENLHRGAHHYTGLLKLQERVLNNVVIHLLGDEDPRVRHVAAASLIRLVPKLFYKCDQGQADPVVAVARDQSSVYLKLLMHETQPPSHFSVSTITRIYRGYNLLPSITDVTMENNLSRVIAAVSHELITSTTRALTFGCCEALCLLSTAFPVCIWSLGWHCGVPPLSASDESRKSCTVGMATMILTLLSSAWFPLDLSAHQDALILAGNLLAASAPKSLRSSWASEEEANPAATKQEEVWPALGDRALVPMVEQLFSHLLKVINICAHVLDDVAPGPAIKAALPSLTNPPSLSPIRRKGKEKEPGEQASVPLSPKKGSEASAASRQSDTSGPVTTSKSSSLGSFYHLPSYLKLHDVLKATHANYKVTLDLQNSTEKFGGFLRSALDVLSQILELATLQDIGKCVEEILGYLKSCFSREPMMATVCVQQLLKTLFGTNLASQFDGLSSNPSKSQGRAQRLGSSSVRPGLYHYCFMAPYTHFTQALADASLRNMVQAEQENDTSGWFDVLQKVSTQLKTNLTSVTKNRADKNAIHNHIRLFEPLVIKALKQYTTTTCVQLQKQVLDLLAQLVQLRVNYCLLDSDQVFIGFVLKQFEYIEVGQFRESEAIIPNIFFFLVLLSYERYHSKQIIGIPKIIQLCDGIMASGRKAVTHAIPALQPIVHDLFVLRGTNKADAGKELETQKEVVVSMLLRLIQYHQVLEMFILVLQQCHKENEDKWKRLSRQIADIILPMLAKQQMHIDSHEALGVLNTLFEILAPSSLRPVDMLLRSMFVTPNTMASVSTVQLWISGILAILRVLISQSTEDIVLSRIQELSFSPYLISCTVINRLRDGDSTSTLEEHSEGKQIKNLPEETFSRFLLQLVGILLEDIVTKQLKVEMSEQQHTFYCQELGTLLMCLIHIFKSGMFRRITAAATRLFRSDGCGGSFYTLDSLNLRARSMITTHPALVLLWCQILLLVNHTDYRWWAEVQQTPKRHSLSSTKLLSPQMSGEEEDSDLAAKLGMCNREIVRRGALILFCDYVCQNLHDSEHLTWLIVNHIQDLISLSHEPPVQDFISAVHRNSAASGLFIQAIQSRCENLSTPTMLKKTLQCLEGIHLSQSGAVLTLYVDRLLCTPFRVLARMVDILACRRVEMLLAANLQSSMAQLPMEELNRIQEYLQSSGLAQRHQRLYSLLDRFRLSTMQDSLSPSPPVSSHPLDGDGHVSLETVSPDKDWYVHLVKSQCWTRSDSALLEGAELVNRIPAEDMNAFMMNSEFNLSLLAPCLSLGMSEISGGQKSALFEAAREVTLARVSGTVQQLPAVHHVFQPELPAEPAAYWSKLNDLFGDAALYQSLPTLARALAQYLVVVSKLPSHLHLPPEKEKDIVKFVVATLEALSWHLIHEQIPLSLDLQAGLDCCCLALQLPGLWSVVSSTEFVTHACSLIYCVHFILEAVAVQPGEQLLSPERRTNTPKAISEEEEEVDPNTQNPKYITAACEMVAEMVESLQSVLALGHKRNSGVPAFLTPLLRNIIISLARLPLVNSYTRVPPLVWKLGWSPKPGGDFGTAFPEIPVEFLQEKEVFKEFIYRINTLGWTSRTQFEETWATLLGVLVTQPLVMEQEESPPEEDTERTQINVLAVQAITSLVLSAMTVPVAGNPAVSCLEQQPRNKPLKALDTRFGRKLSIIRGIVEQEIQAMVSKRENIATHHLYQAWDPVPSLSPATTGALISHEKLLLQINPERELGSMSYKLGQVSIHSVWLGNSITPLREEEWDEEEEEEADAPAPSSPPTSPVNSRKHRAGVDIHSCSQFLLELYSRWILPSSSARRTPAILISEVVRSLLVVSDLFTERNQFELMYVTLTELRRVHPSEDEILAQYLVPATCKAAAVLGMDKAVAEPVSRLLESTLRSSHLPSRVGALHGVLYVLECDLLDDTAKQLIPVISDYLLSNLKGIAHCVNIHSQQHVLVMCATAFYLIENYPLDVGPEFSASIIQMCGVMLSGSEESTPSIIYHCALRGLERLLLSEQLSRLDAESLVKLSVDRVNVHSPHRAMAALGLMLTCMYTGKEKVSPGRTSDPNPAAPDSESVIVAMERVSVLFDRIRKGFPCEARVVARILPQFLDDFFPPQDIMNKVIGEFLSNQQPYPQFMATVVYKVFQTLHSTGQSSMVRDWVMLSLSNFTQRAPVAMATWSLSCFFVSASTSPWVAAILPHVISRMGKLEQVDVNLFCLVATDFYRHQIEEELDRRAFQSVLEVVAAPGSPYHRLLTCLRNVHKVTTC
T1 sequence (Q13489 whole entry, looked up): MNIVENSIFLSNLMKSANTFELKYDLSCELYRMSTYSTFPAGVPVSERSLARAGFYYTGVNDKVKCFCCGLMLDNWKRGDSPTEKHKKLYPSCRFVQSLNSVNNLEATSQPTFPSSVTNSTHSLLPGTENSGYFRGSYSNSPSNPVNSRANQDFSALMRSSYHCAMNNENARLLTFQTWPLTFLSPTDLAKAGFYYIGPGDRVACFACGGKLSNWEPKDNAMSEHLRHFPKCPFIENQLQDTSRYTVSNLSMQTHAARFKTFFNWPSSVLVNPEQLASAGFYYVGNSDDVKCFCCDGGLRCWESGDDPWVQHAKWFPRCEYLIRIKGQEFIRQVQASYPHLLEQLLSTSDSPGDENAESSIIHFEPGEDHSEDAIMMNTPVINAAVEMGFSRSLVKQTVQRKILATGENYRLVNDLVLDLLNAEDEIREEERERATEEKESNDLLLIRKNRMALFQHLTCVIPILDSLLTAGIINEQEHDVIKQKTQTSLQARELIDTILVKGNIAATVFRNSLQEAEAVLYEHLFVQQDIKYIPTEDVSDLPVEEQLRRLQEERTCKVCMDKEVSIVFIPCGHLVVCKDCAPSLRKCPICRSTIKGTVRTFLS

Activity [1]	Activity [2]	Activity [3]	Activity [4]	Activity [5]	Activity [6]	Activity [7]	Activity [8]	Activity [9]	Activity [10]	Activity [11]	Activity [12]	SMILES
Active	Active	Active	Active	Active	Active							Cc1ccc2nc(-c3ccc(NCCOCCOCCNC(=O)[C@H](CC(C)C)NC(=O)[C@@H](O)[C@H](N)Cc4ccccc4)cc3)sc2c1
72%	70%	44%		Active	76%	inactive	Dose-dependent effect	Active	Active	Active	inactive	CN[C@@H](C)C(=O)N[C@H](C(=O)N1CCC[C@H]1C(=O)N[C@H](C(=O)NCCOCCOCCOc1ccc2nc(/N=N/c3ccc(N(C)C)cc3)sc2c1)C(c1ccccc1)c1ccccc1)C1CCCCC1 (H-[NMeA][Chg]P[Dip]-X1)
Active	Active	Active	Active	Active	Active							CC(C)C[C@H](NC(=O)[C@@H](O)[C@H](N)Cc1ccccc1)C(=O)NCCOCCOCCOc1ccc2nc(/N=N/c3ccc(N(C)C)cc3)sc2c1
